From the supplement of paper PMC6470124

Experiments:
[1] = absolute recovery over vacuum-assisted evaporative concentration; higher = better recovery; conditions: enrichment method: VEC
Summary of the method: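 Water samples (influent 6 mL, effluent 15 mL, surface and nanopure water 60 mL) were spiked with standards before concentration, after concentration or not at all, at 200 ng/L (nanopure/surface) or 1000 ng/L (wastewater), with class- and compound-specific adjustments. They were evaporated at 55 °C and 20 mbar to about 0.3 mL, brought to 0.4 mL and centrifuged. Internal standards were added afterwards and samples were analysed by LC-HRMS/MS. Absolute recovery was (response ratio pre − unspiked)/(post − unspiked) × 100, using averages of ≥ 2 replicates.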

[2] = absolute recovery over mixed-bed multilayer solid-phase extraction; higher = better recovery; conditions: enrichment method: SPE
Summary of the method: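 Wastewater (100–250 mL, pH 6.5, glass-fibre filtered) and unfiltered nanopure water (1000 mL) were extracted on a three-layer mixed-bed cartridge, with standards spiked before extraction, after it, or not at all at 1000 ng/L and 200 ng/L respectively, apart from some classes. Internal standards were then added for liquid chromatography with high-resolution tandem mass spectrometry in both ionisation modes. Absolute recovery compares background-corrected response ratios of pre- and post-spiked samples across at least two replicates.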

[3] = LC retention time (Atlantis T3, 5-95% MeOH gradient, 0.1% formic acid); higher = more retained / less polar
Summary of the method: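 Retention times were recorded for reference standards on a polar reversed-phase C18 column. The standards were of purity ≥ 95%, and the Atlantis T3 column (3 × 150 mm, 3 μm) was run at 0.3 mL/min with a gradient from 5 to 95% methanol over 17.5 min, both water and methanol containing 0.1% formic acid. Detection used high-resolution tandem mass spectrometry on a QExactive Plus, with positive and negative electrospray in separate runs, and peaks were integrated in TraceFinder (5 ppm tolerance, at least three points per peak) before being checked by hand.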

SMILES | absolute recovery ([1]; wastewater effluent) | absolute recovery ([1]; wastewater influent) | absolute recovery ([2]; nanopure water) | absolute recovery ([2]; surface water) | absolute recovery ([2]; wastewater effluent) | absolute recovery ([2]; wastewater influent) | LC retention time [3]
COCCN(C(=O)CCl)c1c(C)cccc1C [Dimethachlor] | 94.3% | 97.7% | 93% | 89.9% | 89.6% | 95.7% | 18.8 min
COCC(C)N(C(=O)C(=O)[O-])c1c(C)csc1C (stereo not drawn) [Dimethenamid-OXA] | 105% | 108% | 96.4% | 99% |  | 86.6% | 19.8 min
COCC(C)N(C(=O)CCl)c1c(C)csc1C (stereo not drawn) [Dimethenamid] | 96% | 92.1% | 94.4% | 92.8% | 91.7% | 92.1% | 19.6 min
CNC(=O)CSP(=S)(OC)OC [Dimethoat] | 102% | 103% | 93.4% | 90.7% | 93% | 92.3% | 14.4 min
COc1ccc(C(=CC(=O)N2CCOCC2)c2ccc(Cl)cc2)cc1OC [Dimethomorph] | 116% | 95.7% | 98.4% | 81.4% | 81.4% | 91.4% | 19.5 min
COC(=O)c1cc(C(=O)OC)cc(S(=O)(=O)[O-])c1 [Dimethyl-5-Sulfoisophthalate] | 108% | 90.7% | 96% | 92.9% | 96.6% | 15.6% | 16.1 min
CCCCCCCCCCCCCC[N+](C)(C)CCCCCCCCCCCCCC [Dimethylditetradecylammonium (=ATMAC-18)] | 119% | 4.7% |  |  | 55.3% | 38.7% | 21.6 min
CCC(C)c1cc([N+](=O)[O-])cc([N+](=O)[O-])c1[O-] (stereo not drawn) [Dinoseb] | 94.2% | 91.8% | 103% | 82.6% | 89.1% | 123% | 21.5 min
C[NH+](C)CCOC(c1ccccc1)c1ccccc1 [Diphenhydramine] | 104% | 103% | 88.9% | 97% | 91.1% | 77.8% | 14.6 min
CCCC(CCC)(C(=O)[O-])C(=O)O [Dipropylmalonic-acid] | 103% | 109% | 94.4% | 88.7% | 94.7% | 87.9% | 18.2 min
CC(C)[NH+](CCC(C(N)=O)(c1ccccc1)c1ccccn1)C(C)C (stereo not drawn) [Disopyramide] | 98.1% | 106% | 90% | 94.4% | 92% | 104% | 12.2 min
NC(=O)Nc1ccc(Cl)c(Cl)c1 [Diuron-desdimethyl (=1-(3-4-Dichlorophenyl)urea)] | 101% | 102% | 98.3% | 100% | 96.4% | 94.9% | 18 min
CNC(=O)Nc1ccc(Cl)c(Cl)c1 [Diuron-desmonomethyl (=DCPMU)] | 105% | 106% | 99.4% | 112% | 102% | 86.1% | 18.6 min
CN(C)C(=O)Nc1ccc(Cl)c(Cl)c1 [Diuron] | 109% | 103% | 97.7% | 98.5% | 92.1% | 94.1% | 18.8 min
CCCCCCCCCCCC[N+](C)(C)C [Dodecyltrimethylammonium] | 99.1% |  | 84.2% | 114% | 69.5% | 33.9% | 17.9 min
COc1cc2[nH+]c(N3CCN(C(=O)C4COc5ccccc5O4)CC3)nc(N)c2cc1OC (stereo not drawn) [Doxazosin] | 107% | 107% | 92.5% | 114% | 108% | 56.7% | 15.3 min
COc1cccc2c1C(=O)c1c(O)c3c(c(O)c1C2=O)CC(O)(C(=O)CO)CC3OC1CC([NH3+])C(O)C(C)O1 (stereo not drawn) [Doxorubicin] | 38.8% | 45.5% | 40.5% | 19.3% | 28.1% | 53.3% | 15.8 min
COc1cccc2c1C(=O)c1c(O)c3c(c(O)c1C2=O)CC(O)(C(O)CO)CC3OC1CC([NH3+])C(O)C(C)O1 (stereo not drawn) [Doxorubicinol] | 60.8% | 65.4% | 70.4% | 75.4% | 73.7% | 79.4% | 15.2 min
C[NH+](C)CCOC(C)(c1ccccc1)c1ccccn1 (stereo not drawn) [Doxylamine] | 120% | 109% | 84.3% | 91.3% | 94.8% | 85% | 10.8 min
CCCCc1oc2ccc(NS(C)(=O)=O)cc2c1C(=O)c1ccc(OCCC[NH+](CCCC)CCCC)cc1 [Dronedaron] | 44.9% | 101% | 71.7% | 87.9% | 84.1% |  | 17.5 min
OCC(O)C[NH+]1CCN(c2ccccc2)CC1 (stereo not drawn) [Dropropizine] | 106% | 98.7% | 108% | 108% | 99.5% | 86.7% | 9.49 min
CC=C1[NH+](C)C(C)CC1(c1ccccc1)c1ccccc1 (stereo not drawn) [EDDP (=2-Ethylidene-1-5-dimethyl-3-3-diphenylpyrrolidin)] | 95% | 82.3% | 33.8% | 65% | 60.2% | 75.8% | 14.4 min
O=C1Nc2ccc(Cl)cc2C(C#CC2CC2)(C(F)(F)F)O1 (stereo not drawn) [Efavirenz] | 105% | 124% | 102% | 104% | 92.4% | 134% | 20.5 min
Nc1nc(=O)n(C2CSC(CO)O2)cc1F (stereo not drawn) [Emtricitabine] | 103% | 101% | 75.9% | 87.2% | 84.2% | 85.2% | 9.72 min
C[NH2+]C(C)C(O)c1ccccc1 (stereo not drawn) [Ephedrin] | 107% | 99% | 93.4% | 93.3% | 89.3% | 89.4% | 9.53 min

SMILES | absolute recovery ([1]; wastewater effluent) | absolute recovery ([1]; wastewater influent) | absolute recovery ([2]; nanopure water) | absolute recovery ([2]; surface water) | absolute recovery ([2]; wastewater effluent) | absolute recovery ([2]; wastewater influent) | LC retention time [3]
Fc1ccc(C2(Cn3cncn3)OC2c2ccccc2Cl)cc1 (stereo not drawn) [Epoxiconazol] | 103% | 99.3% | 100% | 95.4% | 93.9% | 92.7% | 20.3 min
CCCCc1[nH+]cc(C=C(Cc2cccs2)C(=O)[O-])n1Cc1ccc(C(=O)[O-])cc1 [Eprosartan] | 103% | 96.1% | 97.1% | 93.4% | 93.6% | 94.2% | 14.6 min
CCC1OC(=O)C(C)C(OC2CC(C)(OC)C(O)C(C)O2)C(C)C(OC2OC(C)CC([NH+](C)C)C2O)C(C)(O)CC(C)C(=O)C(C)C(O)C1(C)O (stereo not drawn) [Erythromycin] | 113% |  | 50.1% | 69.3% | 78.3% | 83.3% | 16.9 min
CCC(CO)NCC[NH2+]C(CC)CO (stereo not drawn) [Ethambutol] | 102% | 124% | 75.8% | 64.3% | 66.3% | 66.2% | 3.04 min
CC1(C)C(=O)Oc2ccc(OS(C)(=O)=O)cc21 [Ethofumesat-2-keto] | 101% | 82.2% | 69.5% | 50.8% | 76.7% | 88.3% | 15.2 min
CCOC1Oc2ccc(OS(C)(=O)=O)cc2C1(C)C (stereo not drawn) [Ethofumesat] | 105% | 94% | 98.7% | 102% | 96.1% | 92% | 19.2 min
CCc1cccc2c3c([nH]c12)C(CC)(CC(=O)[O-])OCC3 (stereo not drawn) [Etodolac] | 103% | 99.8% | 86.6% | 80.5% | 82.3% | 93.5% | 20.8 min
C=C1CC2C(CCC3(C)C(=O)CCC23)C2(C)C=CC(=O)C=C12 (stereo not drawn) [Exemestan] | 100% | 71.7% | 91.6% | 96% | 93.2% | 98.3% | 19.6 min
C=CCC1C=C(C)CC(C)CC(OC)C2OC(O)(C(=O)C(=O)N3CCCCC3C(=O)OC(C(C)=CC3CCC(O)C(OC)C3)C(C)C(O)CC1=O)C(C)CC2OC (stereo not drawn) [FK-506 (=Tacrolimus)] | 56.2% |  | 82.7% | 66.5% | 53.5% |  | 22.2 min
O=C([O-])C[N-]S(=O)(=O)C(F)(F)C(F)(F)C(F)(F)C(F)(F)C(F)(F)C(F)(F)C(F)(F)C(F)(F)F [FOSAA] | 117% |  | 60.5% | 85.9% | 76.6% | 32.2% | 22.2 min
CSC1=NC(C)(c2ccccc2)C(=O)N1Nc1ccccc1 (stereo not drawn) [Fenamidone] | 106% | 98.7% | 100% | 107% | 101% | 91.6% | 19.2 min
CC1(C(=O)Nc2ccc(O)c(Cl)c2Cl)CCCCC1 [Fenhexamid] | 92.1% | 96.3% | 102% |  |  | 97% | 20.1 min
CC(C)OC(=O)C(C)(C)Oc1ccc(C(=O)c2ccc(Cl)cc2)cc1 [Fenofibrat] | 105% | 98.6% | 70% | 86.7% | 81% | 78.4% | 22.5 min
CC(C)(Oc1ccc(C(=O)c2ccc(Cl)cc2)cc1)C(=O)[O-] [Fenofibric-acid] | 106% | 102% | 98.5% | 86% | 82.7% | 99% | 20.8 min
CCOC(=O)NCCOc1ccc(Oc2ccccc2)cc1 [Fenoxycarb] | 127% | 120% | 105% | 127% | 113% | 74.2% | 20.4 min
CC(Cc1ccc(C(C)(C)C)cc1)C[NH+]1CCCCC1 (stereo not drawn) [Fenpropidin] | 146% | 46.3% |  | 107% | 94.1% | 67.3% | 16.4 min
CC(C)(C(=O)[O-])c1ccc(C(O)CCC[NH+]2CCC(C(O)(c3ccccc3)c3ccccc3)CC2)cc1 (stereo not drawn) [Fexofenadin] | 105% | 101% | 97% | 99.3% | 91.4% | 101% | 15.7 min
N#Cc1nn(-c2c(Cl)cc(C(F)(F)F)cc2Cl)c(N)c1SC(F)(F)F [Fipronil-sulfid] | 118% | 137% | 105% | 107% | 89.4% | 121% | 20.5 min
N#Cc1nn(-c2c(Cl)cc(C(F)(F)F)cc2Cl)c(N)c1S(=O)C(F)(F)F (stereo not drawn) [Fipronil] | 103% | 98.5% | 99% | 95.7% | 94.2% | 88.5% | 20.4 min
N#CCNC(=O)c1cnccc1C(F)(F)F [Flonicamid] | 99.6% | 106% | 96.3% | 101% | 99.5% | 96% | 12.2 min
CC(Oc1ccc(Oc2ccc(C(F)(F)F)cn2)cc1)C(=O)[O-] (stereo not drawn) [Fluazifop] | 101% | 102% | 99.5% | 96.8% | 96.6% | 98% | 19.7 min
OC(Cn1cncn1)(Cn1cncn1)c1ccc(F)cc1F [Fluconazol] | 105% | 105% | 100% | 92.8% | 96.9% | 96.1% | 14.2 min
N#Cc1c[nH]cc1-c1cccc2c1OC(F)(F)O2 [Fludioxonil] | 116% | 108% | 101% | 108% | 105% | 77% | 19.5 min
CC(C)N(C(=O)CS(=O)(=O)[O-])c1ccc(F)cc1 [Flufenacet-ESA] | 112% | 109% | 89.4% | 84% | 96.3% | 96.4% | 21.4 min
CC(C)N(C(=O)C(=O)[O-])c1ccc(F)cc1 [Flufenacet-OXA] | 106% | 99.5% | 93.7% | 91.2% | 93% | 92.4% | 19.1 min
